Laboratory results reported in patent publication US8906826B2, “Herbicidal compositions comprising 4-amino-3-chloro-5-fluoro-6-(4-chloro-2-fluoro-3-methoxyphenyl) pyridine-2-carboxylic acid or a derivative thereof and imidazolinones” (Dow AgroSciences, LLC, priority 2012, dated 2014).

Key:
CYPRO = assay: In-water applied, transplanted paddy rice weeds (Example II); assay type: in vivo, Cyperus rotundus L.
Description: Weed seeds or nutlets of the desired test plant species were planted in puddled soil (mud) prepared by mixing a shredded, non-sterilized mineral soil (50.5 percent silt, 25.5 percent clay, and 24 percent sand, with a pH of about 7.6 and an organic matter content of about 2.9 percent) and water at a 1:1 volumetric ratio. The prepared mud was dispensed in 365 mL aliquots into 16-ounce (oz.) non-perforated plastic pots with a surface area of 86.59 square centimeters (cm^2) leaving a headspace of 3 centimeters (cm) in each pot. Mud was allowed to dry overnight prior to planting or transplanting. Rice seeds were planted in Sun Gro MetroMix® 306 planting mixture, which typically has a pH of about 6.0 to about 6.8 and an organic matter content of about 30 percent, in plastic plug trays. Seedlings at the second or third leaf stage of growth were transplanted into 860 mL of mud contained in 32-oz. non-perforated plastic pots with a surface area of 86.59 cm^2 4 days prior to herbicide application. The paddy was created by filling the headspace of the pots with 2.5 to 3 cm of water. When required to ensure good germination and healthy plants, a fungicide treatment and/or other chemical or physical treatment was applied. The plants were grown for 4-22 days in a greenhouse with an approximate 14 h photoperiod which was maintained at about 29° C. during the day and about 26° C. during the night. Nutrients were added as Osmocote® (19:6:12, N:P:K+minor nutrients) at 2 g per 16-oz. pot and 4 g per 32-oz. pot. […]
Treatment requirements for each compound or herbicidal component were calculated based upon the rates being tested, the concentration of active ingredient or acid equivalent in the formulation, an application volume of 2 mL per component per pot, and an application area of 86.59 cm^2 per pot.
For formulated compounds, a measured amount was placed in an individual 100 or 200 mL glass vial and was dissolved in a volume of 1.25% (v/v) Agri-Dex® crop oil concentrate to obtain application solutions. […]

VERPE = assay: Postemergence herbicidal activity in cereal crops, greenhouse (Example V); assay type: in vivo, Veronica persica Poir.
Description: (§1) Seeds of the desired test plant species were planted in Sun Gro MetroMix® 306 planting mixture, which typically has a pH of 6.0 to 6.8 and an organic matter content of about 30 percent, in plastic pots with a surface area of 103.2 square centimeters (cm^2). When required to ensure good germination and healthy plants, a fungicide treatment and/or other chemical or physical treatment was applied. The plants were grown for 7-36 days in a greenhouse with an approximate 14 hour photoperiod which was maintained at about 18° C. during the day and about 17° C. during the night. Nutrients and water were added on a regular basis and supplemental lighting was provided with overhead metal halide 1000-Watt lamps as necessary. The plants were employed for testing when they reached the second or third true leaf stage.
(§2) Treatments consisted of the benzyl ester of 4-amino-3-chloro-5-fluoro-6-(4-chloro-2-fluoro-3-methoxy-phenyl)pyridine-2-carboxylic acid (Compound A), formulated as an SC, a second cereal herbicide alone and then both in combination.
(§3) Other herbicidal components were applied on an acid equivalent basis and include acetolactate synthase (ALS)-inhibiting herbicides (imidazolinone chemical class) imazamethabenz-methyl formulated as Assert®. Spray solutions of the second cereal herbicide and experimental compound mixtures were prepared by adding the stock solutions to the appropriate amount of dilution solution to form 12 mL spray solution with active ingredients in two- and three-way combinations. […]
(§4) The treated plants and control plants were placed in a greenhouse as described above and watered by sub-irrigation to prevent wash-off of the test compounds. After 20-22 days, the condition of the test plants as compared with that of the control plants was determined visually and scored on a scale of 0 to 100 percent where 0 corresponds to no injury and 100 corresponds to complete kill. […]

CIRAR = assay: as above; assay type: in vivo, Cirsium arvense (L.) Scop.
Description: as §1, §2, §3, §4

SASKR = assay: as above; assay type: in vivo, Salsola iberica L.
Description: as §1, §2, §3, §4

CHEAL = assay: as above; assay type: in vivo, Chenopodium album L.
Description: as §1, §2, §3, §4

SINAR = assay: as above; assay type: in vivo, Sinapis arvensis L.
Description: as §1, §2, §3, §4

PAPRH = assay: as above; assay type: in vivo, Papaver rhoeas L.
Description: as §1, §2, §3, §4

[1] = Compound A Benzyl Ester 2 gae/ha
[2] = Compound A Benzyl Ester 4 gae/ha

| SMILES | Visual Weed Control (%) - 22 DAA CYPRO Obs (CYPRO; Compound A Acid 10.6 gae/ha) [%] | Visual Weed Control (%) - 22 DAA CYPRO Obs (CYPRO; Compound A Acid 21.2 gae/ha) [%] | Visual Weed Control (%) - 21 DAA VERPE Obs (VERPE; [1]) [%] | Visual Weed Control (%) - 21 DAA VERPE Obs (VERPE; [2]) [%] | Visual Weed Control (%) - 21 DAA CIRAR Obs (CIRAR; [1]) [%] | Visual Weed Control (%) - 21 DAA CIRAR Obs (CIRAR; [2]) [%] | Visual Weed Control (%) - 21 DAA SASKR Obs (SASKR; [1]) [%] | Visual Weed Control (%) - 21 DAA SASKR Obs (SASKR; [2]) [%] | Visual Weed Control (%) - 21 DAA CHEAL Obs (CHEAL; [1]) [%] | Visual Weed Control (%) - 21 DAA CHEAL Obs (CHEAL; [2]) [%] | Visual Weed Control (%) - 21 DAA SINAR Obs (SINAR; [1]) [%] | Visual Weed Control (%) - 21 DAA SINAR Obs (SINAR; [2]) [%] | Visual Weed Control (%) - 21 DAA PAPRH Obs (PAPRH; [1]) [%] | Visual Weed Control (%) - 21 DAA PAPRH Obs (PAPRH; [2]) [%] |
| --- | --- | --- | --- | --- | --- | --- | --- | --- | --- | --- | --- | --- | --- | --- |
| COc1c(Cl)ccc(-c2nc(C(=O)O)c(Cl)c(N)c2F)c1F [Compound A Acid, 4-amino-3-chloro-6-(4-chloro-2-fluoro-3-methoxyphenyl)-5-fluoropyridine-2-carboxylic acid] | 0 | 40 |  |  |  |  |  |  |  |  |  |  |  |  |
| COc1c(Cl)ccc(-c2nc(C(=O)OCc3ccccc3)c(Cl)c(N)c2F)c1F [Compound A Benzyl Ester, benzyl ester of 4-amino-3-chloro-5-fluoro-6-(4-chloro-2-fluoro-3-methoxy-phenyl)pyridine-2-carboxylic acid] |  |  | 0 | 5 | 10 | 20 | 10 | 60 | 50 | 60 | 60 | 70 | 20 | 70 |
